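96-well plates; 48 h exposure; 5 concentrations. Endpoints by linear interpolation between flanking doses. Not reached: highest tested concentration assigned. Abbreviation: GI50, concentration required for 50% inhibition of growth. TGI: total growth inhibition.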
Key:
Assay in all cases: NCI anticancer screen, dose series, 48 h
A549 NSCLC = system: A549 NSCLC
CCRF-CEM leukemia = system: CCRF-CEM leukemia
SF-539 CNS = system: SF-539 CNS
SR leukemia = system: SR leukemia
RXF 393 renal = system: RXF 393 renal
OVCAR-3 ovarian = system: OVCAR-3 ovarian
M19-MEL melanoma = system: M19-MEL melanoma
DMS 114 small cell lung = system: DMS 114 small cell lung
KM20L2 colon = system: KM20L2 colon
HOP-18 NSCLC = system: HOP-18 NSCLC

Compound | TGI (A549 NSCLC) | TGI (CCRF-CEM leukemia) | TGI (SF-539 CNS) | TGI (SR leukemia) | TGI (RXF 393 renal) | TGI (OVCAR-3 ovarian) | TGI (M19-MEL melanoma) | TGI (DMS 114 small cell lung) | GI50 (A549 NSCLC) | GI50 (CCRF-CEM leukemia) | GI50 (SF-539 CNS) | GI50 (SR leukemia) | GI50 (RXF 393 renal) | GI50 (OVCAR-3 ovarian) | TGI (KM20L2 colon) | TGI (HOP-18 NSCLC)
CC(=O)c1c[nH]cc1CO | > 10 µM | > 10 µM | > 10 µM | > 10 µM | > 10 µM | > 10 µM | – | – | – | – | – | – | – | – | – | –
c1ccc(SC(CCCCOC2CCCCO2)Sc2ccccc2)cc1 (stereo unspecified) | > 100 µM | 93.1 µM | > 100 µM | – | > 100 µM | > 100 µM | > 100 µM | > 100 µM | – | – | – | – | – | – | – | –
Cc1nn(-c2nc3ccccc3[nH]2)c2c1C(c1ccc3c(c1)OCO3)CC(=O)N2 (stereo unspecified) | 7.73 µM | > 24.7 µM | 4.82 µM | > 24.9 µM | 6.26 µM | 5.17 µM | – | – | 2.56 µM | 1.94 µM | 2.16 µM | 2.82 µM | 2.47 µM | 2.38 µM | – | –
NCCCCN(Cc1nc2ccccc2[nH]1)[C@H]1CCCc2cccnc21 | 44.4 µM | 56.3 µM | 27.6 µM | 24.8 µM | 66.8 µM | > 100 µM | – | – | 15.2 µM | 7.06 µM | 13.3 µM | 4.52 µM | 13.5 µM | 15.3 µM | – | –
C/C(=N\O)C(CN1CCCCC1)C(c1ccccc1)c1c(O)c2ccccc2oc1=O (stereo unspecified) | > 100 µM | > 10 µM | > 100 µM | – | > 100 µM | > 100 µM | > 100 µM | > 100 µM | – | – | – | – | – | – | > 100 µM | –
[C-]#[N+]C(C)(C)C[C@H]1CC(C)C2CCC(C)C3([N+]#[C-])CCC(=C)C1[C@H]23 (stereo partly specified) | 21.7 µM | > 50 µM | 13.7 µM | 8.74 µM | 10.5 µM | 14.1 µM | 9.43 µM | – | – | – | – | – | – | – | 11.6 µM | 14.4 µM
CS(=O)(=O)Nc1cc(-c2ccc3ncnc(Nc4ccc5c(cnn5Cc5ccccc5F)c4)c3c2)cnc1Cl | > 53.7 µM | > 31.2 µM | 4.9 µM | > 100 µM | 5.85 µM | 3.13 µM | – | – | 2.87 µM | 0.634 µM | 1.09 µM | 3.86 µM | 1.41 µM | 0.795 µM | – | –
O=C(N/C(=C\c1ccc(Oc2ccc(Cl)c(Cl)c2)cc1)c1nc2ccccc2[nH]1)c1ccccc1 | 54.4 µM | 88.5 µM | 32.7 µM | 85 µM | 28.1 µM | 41 µM | 94 µM | – | – | – | – | – | – | – | 37.2 µM | –
CS/C(c1ccccc1)=[N+](/C)[O-] | > 100 µM | > 81.8 µM | > 100 µM | 47.6 µM | > 100 µM | > 100 µM | > 100 µM | – | – | – | – | – | – | – | > 100 µM | > 100 µM
S=C(Nc1ccccc1)N(Cc1ccccc1)c1ccccc1 | > 100 µM | > 100 µM | 66 µM | > 100 µM | 85 µM | > 100 µM | – | – | – | – | – | – | – | – | – | –
O=Cc1ccc(O)c2ncccc12 | > 100 µM | > 32 µM | 19.3 µM | > 31.8 µM | 33.8 µM | 6.85 µM | – | – | 28.1 µM | 0.952 µM | 3.33 µM | 0.858 µM | 10.4 µM | 1.4 µM | – | –
